Assay results reported in ChEMBL document CHEMBL5344418, “Recent developments in antimalarial activities of 4-aminoquinoline derivatives” (Eur J Med Chem, 2023).
Blank lines part the entries; values can stand above or below the compound they belong to.

Key:
Plasmodium falciparum [1] = assay: Antiplasmodial activity against Plasmodium falciparum 3D7 assessed as reduction in parasite growth by Lactate dehydrogenase assay; assay type: functional, organism-based
Plasmodium falciparum [2] = assay: Antiplasmodial activity against Plasmodium falciparum Dd2 assessed as reduction in parasitic growth incubated for 48 hrs by SYBR Green staining based fluorescence analysis; assay type: functional, organism-based; conditions: Dd2, 48 h
Plasmodium berghei = assay: Antimalarial activity against Plasmodium berghei ANKA; assay type: functional, organism-based
[3] = Cytotoxicity against African green monkey Vero cells assessed as reduction in cell viability incubated for 48 hrs by MTT assay; assay type: toxicity, cell-based; conditions: chlorocebus sabaeus
Plasmodium falciparum [4] = assay: Antimalarial activity against Plasmodium falciparum 3D7 assessed as reduction in parasite growth incubated for 48 hrs by Giemsa-staining counting based microscopic analysis; assay type: functional, organism-based; conditions: 3D7, 48 h
Plasmodium falciparum [5] = assay: Antimalarial activity against Plasmodium falciparum K1 assessed as reduction in parasitic growth incubated for 48 hrs by Giemsa-staining counting based microscopic analysis; assay type: functional, organism-based; conditions: K1, 48 h
Plasmodium falciparum [6] = assay: Antimalarial activity against Plasmodium falciparum assessed as reduction in parasite growth incubated for 48 hrs by Giemsa staining based analysis; assay type: functional, organism-based
Plasmodium falciparum [7] = assay: Antiplasmodial activity against Plasmodium falciparum NF54; assay type: functional, organism-based
[8] = Cytotoxicity against African green monkey Vero cells by MTT assay; assay type: toxicity, cell-based; conditions: African green monkey (Chlorocebus sabaeus)
HepG2 = assay: Cytotoxicity against human HepG2 cells assessed as reduction in cell viability incubated for 24 hrs by MTT assay; assay type: functional
Plasmodium falciparum [9] = assay: Antimalarial activity against multi-drug resistant Plasmodium falciparum K1 assessed as reduction in parasite growth incubated for 48 hrs by SYBR green assay; assay type: functional, organism-based; conditions: K1, 48 h
Plasmodium falciparum [10] = assay: Antimalarial activity against chloroquine-sensitive Plasmodium falciparum 3D7 assessed as reduction in parasite growth incubated for 48 hrs by SYBR green assay; assay type: functional, organism-based; conditions: 3D7, 48 h
[11] = Cytotoxicity against African green monkey Vero cells; assay type: toxicity, cell-based; conditions: chlorocebus sabaeus
Plasmodium falciparum [12] = assay: Antimalarial activity against Plasmodium falciparum D6 assessed as reduction in parasite growth incubated for 48 hrs by LDH assay; assay type: functional, organism-based; conditions: D6, 48 h
Plasmodium falciparum [13] = assay: Antimalarial activity against Plasmodium falciparum W2 assessed as reduction in parasite growth incubated for 48 hrs by LDH assay; assay type: functional, organism-based; conditions: W2, 48 h
Plasmodium falciparum [14] = assay: Antiplasmodial activity against Plasmodium falciparum 3D7 assessed as inhibition of parasitic growth; assay type: functional, organism-based
Plasmodium falciparum [15] = assay: Antimalarial activity against Plasmodium falciparum Dd2 assessed as reduction in parasitic growth; assay type: functional, organism-based
Plasmodium falciparum [16] = assay: Antimalarial activity against Plasmodium falciparum assessed as parasitic growth inhibition; assay type: functional, organism-based
Plasmodium falciparum [17] = assay: Antimalarial activity against chloroquine-resistant Plasmodium falciparum W2 assessed as growth inhibition incubated for 48 hrs by flow cytometry based analysis; assay type: functional, organism-based; conditions: W2, 48 h
Plasmodium falciparum [18] = assay: Antimalarial activity against chloroquine-sensitive Plasmodium falciparum NF54 assessed as reduction in cell growth; assay type: functional, organism-based
[19] = Cytotoxicity against African monkey Vero cells assessed as reduction in cell viability incubated for 72 hrs by MTT assay; assay type: toxicity, cell-based; conditions: chlorocebus sabaeus
Plasmodium falciparum [20] = assay: Antiplasmodial activity against chloroquine-resistant Plasmodium falciparum W2 assessed as parasitic growth inhibition incubated for 72 hrs by SYBR Green staining based fluorescence analysis; assay type: functional, organism-based; conditions: W2, 72 h
Plasmodium falciparum [21] = assay: Antiplasmodial activity against Plasmodium falciparum K1; assay type: functional, organism-based

Structure (SMILES): COC(=O)/C=C/c1cccc(Nc2ccnc3cc(Cl)ccc23)c1
- IC50 (Plasmodium falciparum [1]): 1810 nM

Structure (SMILES): COc1ccc2nc(/C=C/c3ccncc3)cc(N3CCCCC3)c2c1
- IC50 (Plasmodium falciparum [2]): 4900 nM

- IC50 (Plasmodium berghei): 480 nM
Structure (SMILES): COc1ccc(OC)c2c1CC(Nc1ccnc3cc(Cl)ccc13)C2

Structure (SMILES): CCOC(=O)c1nn(CCNc2ccnc3cc(Cl)ccc23)c2c1C(c1ccc(CC)cc1)C(C#N)=C(N)O2 (stereo unspecified)
- CC50 at 48 h [3]: 17600 nM
- EC50 (Plasmodium falciparum [4]): 13 nM
- EC50 (Plasmodium falciparum [5]): 20 nM

Structure (SMILES): CCOC(=O)c1nn(CCNc2ccnc3cc(Cl)ccc23)c2c1C(c1ccc(O)cc1)C(C#N)=C(N)O2 (stereo unspecified)
- CC50 at 48 h [3]: 9240 nM
- EC50 (Plasmodium falciparum [4]): 26 nM
- EC50 (Plasmodium falciparum [5]): 7120 nM

Structure (SMILES): COc1ccc2nc(/C=C/c3ccncc3)cc(Nc3ccccc3)c2c1
- IC50 (Plasmodium falciparum [2]): 965 nM

Structure (SMILES): COc1ccc2nc(/C=C/c3ccncc3)cc(N3CCN(C)CC3)c2c1
- IC50 (Plasmodium falciparum [2]): 610 nM

Structure (SMILES): C/C(=N/c1ccccc1Nc1ccnc2cc(Cl)ccc12)c1ccc2ccccc2c1
- IC50 (Plasmodium falciparum [6]): 77600 nM

Structure (SMILES): Nc1ccccc1Nc1ccnc2cc(Cl)ccc12
- IC50 (Plasmodium falciparum [6]): 35300 nM

Structure (SMILES): CC(C)(C)NC(=O)/C=C/c1cccc(Nc2ccnc3cc(Cl)ccc23)c1
- IC50 (Plasmodium falciparum [1]): 14800 nM

- IC50 (Plasmodium falciparum [7]): 270 nM
Structure (SMILES): CC1(C)c2ccccc2-c2cc(Cl)c(NC(=O)CNCCCNc3ccnc4cc(Cl)ccc34)cc21
- IC50 [8]: 6330 nM

- IC50 (Plasmodium berghei): 590 nM
Structure (SMILES): COc1ccc2c(c1)C[C@H](Nc1ccnc3cc(Cl)ccc13)C2

Structure (SMILES): CCOC(=O)c1nn(CCNc2ccnc3cc(Cl)ccc23)c2c1C(c1ccco1)C(C#N)=C(N)O2 (stereo unspecified)
- CC50 at 48 h [3]: 84500 nM
- EC50 (Plasmodium falciparum [4]): 113 nM
- EC50 (Plasmodium falciparum [5]): 1610 nM

- IC50 (Plasmodium falciparum [7]): 346 nM
Structure (SMILES): O=C(CNCCCNc1ccnc2cc(Cl)ccc12)Nc1cc2c(cc1Cl)-c1ccccc1C2
- IC50 [8]: 11200 nM

Structure (SMILES): C#CCNc1ccnc2cc(Cl)ccc12
- MLD50 (HepG2): 407 µM
- IC50 (Plasmodium falciparum [9]): 405 nM
- IC50 (Plasmodium falciparum [10]): 377 nM

Structure (SMILES): CC1=NC(=S)N(Nc2ccnc3cc(Cl)ccc23)C(=O)C1
- IC50 (Plasmodium falciparum [6]): 11900 nM

Structure (SMILES): N=C(N=C(N)N)SCCCNc1cc(C(F)(F)F)nc2c(C(F)(F)F)cccc12
- CC50 [11]: > 9170 nM
- IC50 (Plasmodium falciparum [12]): 5540 nM
- IC50 (Plasmodium falciparum [13]): 7210 nM

Structure (SMILES): COC(=O)/C=C/c1ccc(Nc2ccnc3cc(Cl)ccc23)cc1
- IC50 (Plasmodium falciparum [1]): 3220 nM

- IC50 (Plasmodium berghei): 600 nM
Structure (SMILES): Clc1ccc2c(NC3Cc4ccccc4C3)ccnc2c1

- IC50 (Plasmodium falciparum [7]): 139 nM
Structure (SMILES): CCCCC1(CCCC)c2ccccc2-c2cc(Cl)c(NC(=O)CNCCCNc3ccnc4cc(Cl)ccc34)cc21
- IC50 [8]: 15900 nM

Structure (SMILES): N#Cc1ccc2c(CNCCCNc3ccnc4cc(Cl)ccc34)csc2c1
- IC50 (Plasmodium falciparum [14]): 50.2 nM
- IC50 (Plasmodium falciparum [15]): 18.6 nM

Structure (SMILES): COc1ccc2nc(/C=C/c3ccncc3)cc(N3CCCC3)c2c1
- IC50 (Plasmodium falciparum [2]): 367 nM

Structure (SMILES): COc1ccc(/C(C)=N\c2ccccc2Nc2ccnc3cc(Cl)ccc23)cc1OC
- IC50 (Plasmodium falciparum [6]): 49700 nM

Structure (SMILES): Clc1ccc2c(NNc3cccnc3)ccnc2c1
- IC50 (Plasmodium falciparum [16]): 2210 nM

Structure (SMILES): COC(=O)/C=C/c1ccccc1Nc1ccnc2cc(OC)ccc12
- IC50 (Plasmodium falciparum [1]): 15400 nM

Structure (SMILES): Clc1ccc2c(NCCNCc3csc4ccccc34)ccnc2c1
- IC50 (Plasmodium falciparum [14]): > 500 nM
- IC50 (Plasmodium falciparum [15]): 14.4 nM

Structure (SMILES): COc1ccc2nc(/C=C/c3ccncc3)cc(NC3CCCCC3)c2c1
- IC50 (Plasmodium falciparum [2]): 277 nM

Structure (SMILES): COc1ccc2nc(/C=C/c3ccncc3)cc(N3CCN(CCO)CC3)c2c1
- IC50 (Plasmodium falciparum [2]): > 10000 nM

Structure (SMILES): NCCNc1ccnc2cc(Cl)ccc12
- MLD50 (HepG2): 179 µM
- IC50 (Plasmodium falciparum [9]): 218 nM
- IC50 (Plasmodium falciparum [10]): 273 nM

Structure (SMILES): C[C@@H]1CC[C@H]2[C@@H](C)C(=O)O[C@@H]3O[C@@]4(C)CC[C@@H]1[C@]32OO4 [ARTEMISININ]
- CC50 at 48 h [3]: 435000 nM
- IC50 (Plasmodium falciparum [17]): 5 nM
- EC50 (Plasmodium falciparum [4]): 1 nM
- EC50 (Plasmodium falciparum [5]): 1 nM

Structure (SMILES): C[C@H]1[C@H](OC(=O)CCC(=O)O)O[C@@H]2O[C@@]3(C)CC[C@H]4[C@H](C)CC[C@@H]1[C@@]24OO3 [ARTESUNATE]
- IC50 (Plasmodium falciparum [18]): < 5200 nM

Structure (SMILES): CCN(CC)CCCC(C)Nc1ccnc2cc(Cl)ccc12 (stereo unspecified) [CHLOROQUINE]
- CC50 at 72 h [19]: 86800 nM
- EC50 (Plasmodium falciparum [4]): 2 nM
- EC50 (Plasmodium falciparum [5]): 330 nM

Structure (SMILES): C=C[C@H]1CN2CC[C@H]1C[C@H]2[C@H](O)c1ccnc2ccc(OC)cc12 [QUININE]
- IC50 (Plasmodium falciparum [20]): 504 nM
- IC50 (Plasmodium falciparum [21]): 830 nM
